These are literature values, as cited in patent US11696883B2, “Compositions for reducing hair loss and/or increasing hair regrowth” (Triple Hair Inc., priority 2014, dated 2023).

The structures appear in SMILES notation. Like-named read-outs stand apart in the source and are kept apart here.

The conditions of series [1]: latanoprost in ophthalmology use.
Series [2] relates to prostaglandin endoperoxide synthase-1 (PGHS-1). Conditions: Michelet et al. 1997.
The next series relates to hair loss. As to conditions: topical.

As for `CC(C)OC(=O)CCC/C=C\C[C@@H]1[C@@H](CC[C@@H](O)CCc2ccccc2)[C@H](O)C[C@@H]1O` [Latanoprost], the “solubility” value (in acetone, ethanol, ethyl acetate, isopropanol, methanol and octanol) is “freely soluble”; the “solubility” value (in acetonitrile) was “very soluble”; the “solubility” value (in water) is reported as “practically insoluble”. In addition, the other adverse effects entry in series [1] is “erythema, folliculitis, sensation of burning and erysipelas”. In series [1], the side effects result is “augmentation of periocular hirsuteness”.

`Nc1cc(N2CCCCC2)nc(N)[n+]1[O-]` [Minoxidil, 6-(1-pipedidinyl)-2,4-pyrimidinediamine 3-oxide]: the “activation of purified PGHS-1” value in series [2] is reported as “potent activator”. Also, the “effective in promoting regrowth of the hair” value with hair loss was “less than 40%”.

For `CC(C)(C)NC(=O)[C@H]1CC[C@H]2[C@@H]3CC[C@H]4NC(=O)C=C[C@]4(C)[C@H]3CC[C@]12C` [Finasteride, (5α,17β)-N-(1,1-Dimethylethyl)-3-oxo-4-azaandrost-1-ene-17-carboxamide], the “solubility” value by setting is: (in 0.1N HCl and 0.1N NaOH) “very slightly soluble”; (in chloroform, DMSO, ethanol, methanol, n-propanol) “freely soluble”; (in propylene glycol, polyethylene glycol 400) “sparingly soluble”; (in water) “not soluble”.
